# Reference: PMC9668928, “Zandelisib (ME-401) in Japanese patients with relapsed or refractory indolent non-Hodgkin’s lymphoma: an open-label, multicenter, dose-escalation phase 1 study” (International Journal of Hematology, 2022)
# Test system: Japanese patients with R/R iNHL
# Assay: Phase 1 dose-escalation study: safety and tolerability (TEAEs, DLTs)
# Type: in vivo
# Source text: Japanese patients aged ≥ 20 years with R/R iNHL histologically confirmed as FL, nodal MZL, extra-nodal MZL of mucosa-associated lymphoid tissue, small lymphocytic lymphoma, lymphoplasmacytic lymphoma, Waldenström’s macroglobulinemia, or equivalent, according to World Health Organization classification, were eligible for this study. Other key eligibility criteria included being PI3K inhibitor therapy-naïve and an Eastern Cooperative Oncology Group performance status of 0 or 1. Further details of inclusion and exclusion criteria are provided in Supplementary Table 1.
# This was a multicenter, open-label, dose-escalation, phase 1 study in Japan. All patients received oral zandelisib once daily at the same time each day, at least 1 h before or 2 h after a meal (CS: continuous schedule). Each treatment cycle was 28 days. Definitions of the DLTs described in this study can be found in Supplementary Table 2. The observation period for DLTs was from day 1 of Cycle 1 to day 1 of Cycle 2. Zandelisib was administered until disease progression or unacceptable toxicity. In the event of an AE, patients could be switched to IDT. In the case of disease progression while receiving IDT, patients could be switched back to CS per the investigator’s discretion.
# A starting dose of 45 mg was set for investigating patient safety. This study adopted a standard 3 + 3 design. […] If DLTs occurred in 2 or more patients, the study was planned to be suspended pending a safety evaluation. If a DLT occurred in 1 patient, 3 further patients were added to cohort 1. If DLTs occurred in 0/3 or 1/6 patients in cohort 1, dosing in cohort 2 commenced (n = 6; 60 mg/day). If the incidence of DLTs in cohort 2 was ≤ 1/6, the maximum tolerated dose was not determined, and the dose in cohort 2 was to be selected as the recommended Japanese phase 2 dose.
# The primary endpoint was the safety [number of patients with treatment-emergent adverse events (TEAEs), based on Common Terminology Criteria for Adverse Events version 5.0] and tolerability (including laboratory values, vital signs, and electrocardiogram performance) of zandelisib in Japanese patients. Hepatobiliary disorder, aspartate/alanine (AST/ALT) increased, diarrhea/colitis, organizing pneumonia, stomatitis, or rash were defined as irAEs in this manuscript. Secondary endpoints included PK (plasma concentrations and PK parameters) and the efficacy of zandelisib. […] The PK parameters for Cycle 1 day 1 and Cycle 2 day 1 were calculated for each patient by non-compartmental analysis. PK parameters included maximum plasma drug concentration (Cmax), area under the plasma concentration–time curve (AUC) from time zero to the last measurable point (AUC0–t), the AUC from time zero to infinity (AUC0-inf), and terminal half-life (t1/2).
structure (smiles),measurement,setting,value
CN1CCC(c2ccccc2CC(C)(C)Nc2nc(N3CCOCC3)nc(-n3c(C(F)F)nc4ccccc43)n2)CC1 [zandelisib],"TEAE Oropharyngeal pain, Grade ≥ 3","45 mg, n = 3",0 n (%)
same,"TEAE Pancreatitis, All grades","45 mg, n = 3",1 (33.3) n (%)
same,"TEAE Pancreatitis, Grade ≥ 3","45 mg, n = 3",1 (33.3) n (%)
same,"TEAE Pharyngeal paresthesia, All grades","45 mg, n = 3",0 n (%)
same,"TEAE Pharyngeal paresthesia, Grade ≥ 3","45 mg, n = 3",0 n (%)
same,"TEAE Pruritus, All grades","45 mg, n = 3",0 n (%)
same,"TEAE Pruritus, Grade ≥ 3","45 mg, n = 3",0 n (%)
same,"TEAE Psychiatric disorders (SOC), All grades","45 mg, n = 3",1 (33.3) n (%)
same,"TEAE Psychiatric disorders (SOC), Grade ≥ 3","45 mg, n = 3",0 n (%)
same,"TEAE Rash maculopapular, All grades","45 mg, n = 3",1 (33.3) n (%)
same,"TEAE Rash maculopapular, Grade ≥ 3","45 mg, n = 3",0 n (%)
same,"TEAE Rash, All grades","45 mg, n = 3",1 (33.3) n (%)
same,"TEAE Rash, Grade ≥ 3","45 mg, n = 3",0 n (%)
same,"TEAE Renal and urinary disorders (SOC), All grades","45 mg, n = 3",1 (33.3) n (%)
same,"TEAE Renal and urinary disorders (SOC), Grade ≥ 3","45 mg, n = 3",0 n (%)
same,"TEAE Renal impairment, All grades","45 mg, n = 3",1 (33.3) n (%)
same,"TEAE Renal impairment, Grade ≥ 3","45 mg, n = 3",0 n (%)
same,"TEAE Respiratory, thoracic, and mediastinal disorders (SOC), All grades","45 mg, n = 3",1 (33.3) n (%)
same,"TEAE Respiratory, thoracic, and mediastinal disorders (SOC), Grade ≥ 3","45 mg, n = 3",1 (33.3) n (%)
same,"TEAE Skin and subcutaneous tissue disorders (SOC), All grades","45 mg, n = 3",3 (100.0) n (%)
same,"TEAE Skin and subcutaneous tissue disorders (SOC), Grade ≥ 3","45 mg, n = 3",0 n (%)
same,"TEAE Stomatitis, All grades","45 mg, n = 3",1 (33.3) n (%)
same,"TEAE Stomatitis, Grade ≥ 3","45 mg, n = 3",1 (33.3) n (%)
same,"TEAE Subcutaneous abscess, All grades","45 mg, n = 3",0 n (%)
same,"TEAE Subcutaneous abscess, Grade ≥ 3","45 mg, n = 3",0 n (%)
same,"TEAE Tinnitus, All grades","45 mg, n = 3",1 (33.3) n (%)
same,"TEAE Tinnitus, Grade ≥ 3","45 mg, n = 3",0 n (%)
same,"TEAE Urticaria, All grades","45 mg, n = 3",1 (33.3) n (%)
same,"TEAE Urticaria, Grade ≥ 3","45 mg, n = 3",0 n (%)
same,"TEAE Vomiting, All grades","45 mg, n = 3",0 n (%)
same,"TEAE Vomiting, Grade ≥ 3","45 mg, n = 3",0 n (%)
same,"TEAE WBC count decreased, All grades","45 mg, n = 3",2 (66.7) n (%)
same,"TEAE WBC count decreased, Grade ≥ 3","45 mg, n = 3",0 n (%)
same,Grade 3 irAEs,60 mg,5 patients
same,"TEAE ALT increased, All grades","60 mg, n = 6",1 (16.7) n (%)
same,"TEAE ALT increased, Grade ≥ 3","60 mg, n = 6",0 n (%)
same,"TEAE AST increased, All grades","60 mg, n = 6",3 (50.0) n (%)
same,"TEAE AST increased, Grade ≥ 3","60 mg, n = 6",0 n (%)
same,"TEAE Abdominal discomfort, All grades","60 mg, n = 6",1 (16.7) n (%)
same,"TEAE Abdominal discomfort, Grade ≥ 3","60 mg, n = 6",0 n (%)
same,"TEAE Abdominal pain upper, All grades","60 mg, n = 6",0 n (%)
same,"TEAE Abdominal pain upper, Grade ≥ 3","60 mg, n = 6",0 n (%)
same,"TEAE Amylase increased, All grades","60 mg, n = 6",0 n (%)
same,"TEAE Amylase increased, Grade ≥ 3","60 mg, n = 6",0 n (%)
same,"TEAE Anemia, All grades","60 mg, n = 6",0 n (%)
same,"TEAE Anemia, Grade ≥ 3","60 mg, n = 6",0 n (%)
same,"TEAE Arthralgia, All grades","60 mg, n = 6",1 (16.7) n (%)
same,"TEAE Arthralgia, Grade ≥ 3","60 mg, n = 6",0 n (%)
same,"TEAE Back pain, All grades","60 mg, n = 6",0 n (%)
same,"TEAE Back pain, Grade ≥ 3","60 mg, n = 6",0 n (%)
same,"TEAE Blepharitis, All grades","60 mg, n = 6",1 (16.7) n (%)
same,"TEAE Blepharitis, Grade ≥ 3","60 mg, n = 6",0 n (%)
same,"TEAE Blood and lymphatic system disorders (SOC), All grades","60 mg, n = 6",0 n (%)
same,"TEAE Blood and lymphatic system disorders (SOC), Grade ≥ 3","60 mg, n = 6",0 n (%)
same,"TEAE Blood creatinine increased, All grades","60 mg, n = 6",1 (16.7) n (%)
same,"TEAE Blood creatinine increased, Grade ≥ 3","60 mg, n = 6",0 n (%)
same,"TEAE Bradycardia, All grades","60 mg, n = 6",0 n (%)
same,"TEAE Bradycardia, Grade ≥ 3","60 mg, n = 6",0 n (%)
same,"TEAE CMV test positive, All grades","60 mg, n = 6",2 (33.3) n (%)
same,"TEAE CMV test positive, Grade ≥ 3","60 mg, n = 6",0 n (%)
same,"TEAE Cardiac disorders (SOC), All grades","60 mg, n = 6",0 n (%)
same,"TEAE Cardiac disorders (SOC), Grade ≥ 3","60 mg, n = 6",0 n (%)
same,"TEAE Conjunctivitis, All grades","60 mg, n = 6",1 (16.7) n (%)
same,"TEAE Conjunctivitis, Grade ≥ 3","60 mg, n = 6",0 n (%)
same,"TEAE Constipation, All grades","60 mg, n = 6",2 (33.3) n (%)
same,"TEAE Constipation, Grade ≥ 3","60 mg, n = 6",0 n (%)
same,"TEAE Cough, All grades","60 mg, n = 6",1 (16.7) n (%)
same,"TEAE Cough, Grade ≥ 3","60 mg, n = 6",0 n (%)
same,"TEAE Decreased appetite, All grades","60 mg, n = 6",0 n (%)
same,"TEAE Decreased appetite, Grade ≥ 3","60 mg, n = 6",0 n (%)
same,"TEAE Diarrhea, All grades","60 mg, n = 6",2 (33.3) n (%)
same,"TEAE Diarrhea, Grade ≥ 3","60 mg, n = 6",2 (33.3) n (%)
same,"TEAE Drug hypersensitivity, All grades","60 mg, n = 6",1 (16.7) n (%)
same,"TEAE Drug hypersensitivity, Grade ≥ 3","60 mg, n = 6",0 n (%)
same,"TEAE Drug-induced liver injury, All grades","60 mg, n = 6",1 (16.7) n (%)
same,"TEAE Drug-induced liver injury, Grade ≥ 3","60 mg, n = 6",1 (16.7) n (%)
same,"TEAE Dry eye, All grades","60 mg, n = 6",0 n (%)
same,"TEAE Dry eye, Grade ≥ 3","60 mg, n = 6",0 n (%)
same,"TEAE Dry skin, All grades","60 mg, n = 6",1 (16.7) n (%)
same,"TEAE Dry skin, Grade ≥ 3","60 mg, n = 6",0 n (%)
same,"TEAE Dysgeusia, All grades","60 mg, n = 6",0 n (%)
same,"TEAE Dysgeusia, Grade ≥ 3","60 mg, n = 6",0 n (%)
same,"TEAE Dyspnea, All grades","60 mg, n = 6",0 n (%)
same,"TEAE Dyspnea, Grade ≥ 3","60 mg, n = 6",0 n (%)
same,"TEAE Ear and labyrinth disorders (SOC), All grades","60 mg, n = 6",0 n (%)
same,"TEAE Ear and labyrinth disorders (SOC), Grade ≥ 3","60 mg, n = 6",0 n (%)
same,"TEAE Eczema, All grades","60 mg, n = 6",1 (16.7) n (%)
same,"TEAE Eczema, Grade ≥ 3","60 mg, n = 6",0 n (%)
same,"TEAE Eosinophil count increased, All grades","60 mg, n = 6",0 n (%)
same,"TEAE Eosinophil count increased, Grade ≥ 3","60 mg, n = 6",0 n (%)
same,"TEAE Erythema multiforme, All grades","60 mg, n = 6",1 (16.7) n (%)
same,"TEAE Erythema multiforme, Grade ≥ 3","60 mg, n = 6",0 n (%)
same,"TEAE Eye disorders (SOC), All grades","60 mg, n = 6",1 (16.7) n (%)
same,"TEAE Eye disorders (SOC), Grade ≥ 3","60 mg, n = 6",0 n (%)
same,"TEAE Flank pain, All grades","60 mg, n = 6",1 (16.7) n (%)
same,"TEAE Flank pain, Grade ≥ 3","60 mg, n = 6",0 n (%)
same,"TEAE GGT increased, All grades","60 mg, n = 6",1 (16.7) n (%)
same,"TEAE GGT increased, Grade ≥ 3","60 mg, n = 6",1 (16.7) n (%)
same,"TEAE Gastrointestinal disorders (SOC), All grades","60 mg, n = 6",4 (66.7) n (%)
same,"TEAE Gastrointestinal disorders (SOC), Grade ≥ 3","60 mg, n = 6",2 (33.3) n (%)
same,"TEAE General disorders and administration site conditions (SOC), All grades","60 mg, n = 6",0 n (%)
same,"TEAE General disorders and administration site conditions (SOC), Grade ≥ 3","60 mg, n = 6",0 n (%)
same,"TEAE Hepatic function abnormal, All grades","60 mg, n = 6",1 (16.7) n (%)
same,"TEAE Hepatic function abnormal, Grade ≥ 3","60 mg, n = 6",1 (16.7) n (%)
same,"TEAE Hepatobiliary disorders (SOC), All grades","60 mg, n = 6",2 (33.3) n (%)
same,"TEAE Hepatobiliary disorders (SOC), Grade ≥ 3","60 mg, n = 6",2 (33.3) n (%)
same,"TEAE Herpes simplex, All grades","60 mg, n = 6",0 n (%)
same,"TEAE Herpes simplex, Grade ≥ 3","60 mg, n = 6",0 n (%)
same,"TEAE Herpes zoster, All grades","60 mg, n = 6",1 (16.7) n (%)
same,"TEAE Herpes zoster, Grade ≥ 3","60 mg, n = 6",0 n (%)
same,"TEAE Hypoesthesia, All grades","60 mg, n = 6",0 n (%)
same,"TEAE Hypoesthesia, Grade ≥ 3","60 mg, n = 6",0 n (%)
same,"TEAE Hypogammaglobulinemia, All grades","60 mg, n = 6",0 n (%)
same,"TEAE Hypogammaglobulinemia, Grade ≥ 3","60 mg, n = 6",0 n (%)
same,"TEAE Immune system disorders (SOC), All grades","60 mg, n = 6",1 (16.7) n (%)
same,"TEAE Immune system disorders (SOC), Grade ≥ 3","60 mg, n = 6",0 n (%)
